Common to all, as to type: cell-based
For assay [1], the system named is human embryonic lung fibroblasts WI-38. The experiment in a line: in vitro proliferation inhibition on normal cells (CCK-8). As to conditions: 48 h, read-out: half-inhibitory concentration. The text has this: (§1) Osteosarcoma cell line 143B, HOS, and U2, liver cancer cell line HepG2, breast cancer cell line MDA-MB-231 and T47D, gastric cancer cell line AGS, BGC-823, and SGC-7901, cervical cancer cells Hela, lung cancer cells A549, intestinal cancer cells Caco2, mouse glioma cells BV-2, human prostate cancer cells PC3, human thyroid cancer cell line BCPAP, human normal liver cell line L02, human normal gastric cell line GES, human umbilical vein epithelial cells HUVEC, and human embryonic lung fibroblasts WI-38 were cultured in a DMEM medium containing 10% fetal bovine serum and 1×HEPES in a humid incubator (37° C., 5% CO2). The cells were passaged with trypsin-EDTA in logarithmic phase. Certain density of cells (AGS, T47D, Caco2, BCPAP, GES, HUVEC 1×10^5 cells per well; HepG2, MDA-MB-231, BGC-823, A549, PC3, L02 8×10^4 cells per well; 143B, HOS, U2, SGC-7901, Hela, BV-2, 5×10^4 cells per well; WI-38, 3×10^5 cells per well) were inoculated in a 96-well plate, and cultured for 24 h before treatment. After replacing a fresh medium, 12.5 mg/L to 400 mg/L, of quercetin 3,3′-dimethyl ether dissolved with DMSO was added into a medium (a final volume ratio was 0.1%, and the DMSO was used as a […]). After incubation for 48 h, a complete medium was replaced with a serum-free medium containing 10% CCK-8 reagent. The absorbance at 450 nm and 620 nm was measured separately after the cells were incubated for 1 h. Each experiment was repeated three times independently.

The test system of assay [2] is human normal liver cell line L02. The description is as above. As to conditions: 48 h, read-out: half-inhibitory concentration.
Source text: as §1

Assay [3] deals with human normal gastric cell line GES. The assay is described as above. The note with it: 48 h, read-out: half-inhibitory concentration.
Source text: as §1

Assay [4] has as its system human umbilical vein epithelial cells HUVEC. Described as above. The note with it: 48 h, read-out: half-inhibitory concentration.
Source text: as §1

The test system of assay [5] is gastric cancer cell line AGS. Description: in vitro cell proliferation inhibition (CCK-8). As to conditions: 48 h incubation, read-out: IC50.
Source text: (§2) Osteosarcoma cell line 143B, HOS, and U2, liver cancer cell line HepG2, breast cancer cell line MDA-MB-231 and T47D, gastric cancer cell line AGS, BGC-823, and SGC-7901, cervical cancer cells Hela, lung cancer cells A549, intestinal cancer cells Caco2, mouse glioma cells BV-2, human prostate cancer cells PC3, human thyroid cancer cell line BCPAP, human normal liver cell line L02, human normal gastric cell line GES, human umbilical vein epithelial cells HUVEC, and human embryonic lung fibroblasts WI-38 were cultured in a DMEM medium containing 10% fetal bovine serum and 1×HEPES in a humid incubator (37° C., 5% CO2). The cells were passaged with trypsin-EDTA in logarithmic phase. Certain density of cells (AGS, T47D, Caco2, BCPAP, GES, HUVEC 1×10^5 cells per well; HepG2, MDA-MB-231, BGC-823, A549, PC3, L02 8×10^4 cells per well; 143B, HOS, U2, SGC-7901, Hela, BV-2, 5×10^4 cells per well; WI-38, 3×10^5 cells per well) were inoculated in a 96-well plate, and cultured for 24 h before treatment. After replacing a fresh medium, 12.5 mg/L to 400 mg/L of quercetin, quercetin 3-methyl ether, and quercetin 3,3′-dimethyl ether dissolved with DMSO were added into the medium (a final volume ratio was 0.1%, and the DMSO was used as a […]). After incubation for 48 h, a complete medium was replaced with a serum-free medium containing 10% CCK-8 reagent. The absorbance at 450 nm and 620 nm was measured separately after the cells were incubated for 1 h. Each experiment was repeated three times independently.
as §1

The test system of assay [6] is Osteosarcoma cell line 143B. Description: in vitro cell proliferation inhibition (CCK-8). The note with it: Homo sapiens, 48 h incubation, read-out: IC50.
Source text: as §2, §1

Assay [7] relates to liver cancer cell line HepG2. Description: in vitro cell proliferation inhibition (CCK-8). As to conditions: Homo sapiens, 48 h incubation, read-out: IC50.
Source text: as §2, §1

For the next assay, the system named is mouse glioma cells BV-2. The experiment in a line: in vitro cell proliferation inhibition (CCK-8). As to conditions: Mus musculus, Glioma cell, BV2, 48 h incubation, read-out: IC50.
Source text: as §2, §1

Assay [8] has as its system gastric cancer cell line BGC-823. The experiment in a line: in vitro cell proliferation inhibition (CCK-8). The note with it: Homo sapiens, BGC-823, BGC823, 48 h incubation, read-out: IC50.
Source text: as §2, §1

Assay [9] deals with Osteosarcoma cell line HOS. Description: in vitro cell proliferation inhibition (CCK-8). The note with it: 48 h incubation, read-out: IC50.
Source text: as §2, §1

Assay [10] has as its system gastric cancer cell line SGC-7901. The experiment in a line: in vitro cell proliferation inhibition (CCK-8). The note with it: Homo sapiens, SGC-7901, SGC7901, 48 h incubation, read-out: IC50.
Source text: as §2, §1

The test system of assay [11] is breast cancer cell line T47D. The experiment in a line: in vitro cell proliferation inhibition (CCK-8). As to conditions: Homo sapiens, 48 h incubation, read-out: IC50.
Source text: as §2, §1

For assay [12], the system named is human prostate cancer cells PC3. The experiment in a line: in vitro cell proliferation inhibition (CCK-8). The note with it: Homo sapiens, 48 h incubation, read-out: IC50.
Source text: as §2, §1

In assay [13] the test system is Osteosarcoma cell line U2. The experiment in a line: in vitro cell proliferation inhibition (CCK-8). As to conditions: 48 h incubation, read-out: IC50.
Source text: as §2, §1

The subject of assay [14] is breast cancer cell line MDA-MB-231. The experiment in a line: in vitro cell proliferation inhibition (CCK-8). The note with it: Homo sapiens, 48 h incubation, read-out: IC50.
Source text: as §2, §1

In assay [15] the test system is intestinal cancer cells Caco2. The experiment in a line: in vitro cell proliferation inhibition (CCK-8). As to conditions: Homo sapiens, Caco-2, 48 h incubation, read-out: IC50.
Source text: as §2, §1

For assay [16], the system named is cervical cancer cells Hela. The experiment in a line: in vitro cell proliferation inhibition (CCK-8). The note with it: Homo sapiens, 48 h incubation, read-out: IC50.
Source text: as §2, §1

Assay [17] concerns human thyroid cancer cell line BCPAP. The experiment in a line: in vitro cell proliferation inhibition (CCK-8). As to conditions: Homo sapiens, 48 h incubation, read-out: IC50.
Source text: as §2, §1

In another assay the test system is lung cancer cells A549. Description: in vitro cell proliferation inhibition (CCK-8). As to conditions: Homo sapiens, 48 h incubation, read-out: IC50.
Source text: as §2, §1

In brackets after ≈: the same amount, converted by molar mass.

Turning to `COc1cc(-c2oc3cc(O)cc(O)c3c(=O)c2OC)ccc1O` [Quercetin 3,3′-dimethyl ether, quercetin 3,3′-dimethyl ether], the IC50 is more than 100 µg/mL in assay [1]; more than 100 µg/mL in assay [2]; more than 100 µg/mL in [3]; more than 100 µg/mL in [4]; 15.8 µg/mL (≈ 47.9 µM) in [5]; 21.6 µg/mL (≈ 65.5 µM) in assay [6]. Moreover, the IC50 was determined as 5.85 µg/mL (≈ 17.7 µM) in assay [7]; 21.1 µg/mL (≈ 63.9 µM) with mouse glioma cells BV-2; 26.1 µg/mL (≈ 78.9 µM) in assay [8]; 18.6 µg/mL (≈ 56.3 µM) in assay [9]; 28.4 µg/mL (≈ 85.9 µM) in [10]; 13.3 µg/mL (≈ 40.4 µM) in assay [11]. Besides, the IC50 in assay [12] turned out to be 31.3 µg/mL (≈ 94.7 µM); in [13] it was 49.5 µg/mL (≈ 150 µM); in assay [14], 11.4 µg/mL (≈ 34.5 µM); in [15], 21.4 µg/mL (≈ 64.8 µM); in assay [16], 11.1 µg/mL (≈ 33.7 µM); in assay [17], 12.3 µg/mL (≈ 37.2 µM). In the assay on lung cancer cells A549, the IC50 was found to be 17.4 µg/mL (≈ 52.6 µM).

Source of the values: patent US20240173289A1, “USE OF OXYMETHYL-MODIFIED DERIVATIVE OF QUERCETIN IN PREPARATION OF DRUG FOR INHIBITING TUMOR CELL PROLIFERATION” (ZHEJIANG UNIVERSITY, priority 2021, published 2024).
